From patent US11834451B2 (priority 2021, dated 2023) come the findings set out here.

Like-named read-outs stand apart in the source and are kept apart here.

In one data set the test system is EV-A71. Put plainly: microbe, parasite or virus in culture. The format is cell-based, enterovirus A71 (EV-A71). The note with it: Enterovirus A, EVA71, RD.
The nature of the next data set: in vitro. To be noted: human.
In another data set the test system is EV-D68, EV-A71, and CVB3. Put plainly: organism not typed. The class given is cell-based. To be noted: for EC50: RD, read-out: EC50 values range against all EV-D68 and EV-A71 strains tested.
The next data set has as its target CVB3 Nancy 2C protein (Coxsackievirus B3, UniProt P03313). The format is binding.
Data set [1] has as its system EV-A71 Tainan/4643/1998 2C protein. The format is binding.
The subject of another data set is CVB3 Nancy virus. Put plainly: microbe, parasite or virus in culture. The note with it: Enterovirus B, CVB3, Vero, read-out: EC50, Anti-CVB3 in Vero cells. The class given is cell-based, coxsackievirus B3 (CVB3).
The subject of another data set is EV-D68. Put plainly: microbe, parasite or virus in culture. The class given is cell-based, enterovirus D68 (EV-D68). The note with it: Enterovirus D, EVD68, RD.
The subject of the next data set is Vero cells. To be noted: African green monkey.
The subject of a further data set is EV-D68 US/MO/14-18947. Description: microbe, parasite or virus in culture. The class given is cell-based, enterovirus D68 (EV-D68). The note with it: Enterovirus D, EVD68, read-out: EC50, viral replication in neuronal cells (immunofluorescence, anti-VP1).
Where [2] appears, read: read-out: EC50, Anti-EV-A71 Tainan/4643/1998 in RD cells.
[3] abbreviates: read-out: EC50, EV-A71 Tainan/4643/1998.
[4] abbreviates: read-out: EC50, EV-A71 USA/CT/2016-19519.
Setting [5] is: CC50 (EV-A71 USA/CT/2016-19519).
Where [6] appears, read: CC50 (EV-D68 US/IL/14-18952 row group).
[7] abbreviates: CC50 (EV-D68 US/IL/14-18956 row group).
[8] abbreviates: CC50 (EV-D68 US/KY/14-18953 row group).
Where [9] appears, read: CC50 (EV-D68 US/MO/14-18947 row group).
[10] abbreviates: CC50 (EV-D68 US/MO/14-18949 row group).
Setting [11] is: CC50, in RD cells (Anti-EV-A71).
Setting [12] is: CC50, in RD cells (Anti-EV-D68).
[13] abbreviates: read-out: EC50, Anti-EV-D68 US/KY/14-18953 in RD cells.
Where [14] appears, read: read-out: EC50, EV-D68 US/IL/14-18952 (Clade B2).
[15] abbreviates: read-out: EC50, EV-D68 US/IL/14-18956 (Clade B2).
Where [16] appears, read: read-out: EC50, EV-D68 US/KY/14-18953 (Clade D).
Where [17] appears, read: read-out: EC50, EV-D68 US/MO/14-18947 (Clade B1).
[18] abbreviates: read-out: EC50, EV-D68 US/MO/14-18949 (Clade B1).

Sequence of CVB3 Nancy 2C protein (P03313 1101-1429 limits assumed): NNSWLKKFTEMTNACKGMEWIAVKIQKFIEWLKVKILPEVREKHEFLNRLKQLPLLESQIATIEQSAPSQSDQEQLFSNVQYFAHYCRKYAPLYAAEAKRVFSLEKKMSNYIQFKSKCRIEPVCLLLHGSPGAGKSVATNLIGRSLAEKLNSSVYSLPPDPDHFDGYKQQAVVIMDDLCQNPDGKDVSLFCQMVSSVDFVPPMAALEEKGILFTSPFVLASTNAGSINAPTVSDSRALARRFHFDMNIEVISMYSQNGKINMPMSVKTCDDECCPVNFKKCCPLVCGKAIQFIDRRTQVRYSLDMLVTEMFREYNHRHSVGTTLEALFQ

As for `CC(C)n1ncc2c(C(=O)NCCN(C)C)cc(C3CC3)nc21` [Compound 7d, 6-cyclopropyl-N-[2-(dimethylamino)ethyl]-1-(propan-2-yl)-1H-pyrazolo[3,4-b]pyridine-4-carboxamide], the EC50 in the data set on EV-A71 (setting [2]) is 800 nM; in the data set with EV-A71 (read-out: EC50, EV-A71 A71 MP4) it was 100 nM; in the data set on EV-A71 (setting [3]), 100 nM; with EV-A71 (setting [4]), 60 nM; with EV-D68, EV-A71, and CVB3, 40 to 100 nM; in the data set on CVB3 Nancy virus, 200 nM. The EC50 with EV-D68 (setting [13]) came out at 100 nM; with EV-D68 (setting [14]), 40 nM; in the data set with EV-D68 (setting [15]) it was 40 nM; in the data set on EV-D68 (setting [16]) it was 100 nM; in the data set on EV-D68 (setting [17]) it was 100 nM; with EV-D68 (setting [18]), 100 nM. For the same compound, the CC50 in “in vitro” (CC50 (EV-A71 Tainan/4643/1998)), in “in vitro” (setting [5]), in the data set “in vitro” (setting [6]), in the data set “in vitro” (setting [7]), in “in vitro” (setting [8]) and in “in vitro” (setting [9]) was 200000 nM throughout. Also, the CC50 in the data set “in vitro” (setting [10]), in the data set “in vitro” (setting [11]) and in “in vitro” (setting [12]) was 200000 nM throughout. Also, the “EC50 values in words (summary across viruses)” value in the data set on EV-D68, EV-A71, and CVB3 is recorded as “nanomolar range”. For the same compound, on CVB3 Nancy 2C protein, the “binding to CVB3 2C protein” value was “dose-response binding”. For the same compound, in [1], the “binding to EV-A71 2C protein” value was “dose-response binding”.
With `CNCCNC(=O)c1cc(C2CC2)nc2c1cnn2C(C)C` [Compound 7h, 6-cyclopropyl-N-[2-(methylamino)ethyl]-1-(propan-2-yl)-1H-pyrazolo[3,4-b]pyridine-4-carboxamide], the CC50 with Vero cells is more than 100000 nM; in the data set “in vitro” (CC50 (EV-A71 Tainan/4643/1998)), 236000 nM; in the data set “in vitro” (setting [5]), 236000 nM; in the data set “in vitro” (setting [6]), 236000 nM; in “in vitro” (setting [7]), 236000 nM; in “in vitro” (setting [8]) it was 236000 nM. For the same compound, the CC50 in the data set “in vitro” (setting [9]), in “in vitro” (setting [10]), in “in vitro” (setting [11]) and in “in vitro” (setting [12]) was 236000 nM throughout. Further, the EC50 was 200 nM in the data set on EV-A71 (setting [2]); 300 nM with EV-A71 (read-out: EC50, EV-A71 A71 MP4); 200 nM with EV-A71 (setting [3]); 100 nM with EV-A71 (setting [4]); 60 to 300 nM in the data set with EV-D68, EV-A71, and CVB3; 200 nM with CVB3 Nancy virus. For the same compound, the EC50 with EV-D68 US/MO/14-18947 came out at 70 nM; with EV-D68 (setting [13]) it was 200 nM; with EV-D68 (setting [14]) it was 200 nM; with EV-D68 (setting [15]) it was 200 nM; in the data set on EV-D68 (setting [16]) it was 200 nM; in the data set with EV-D68 (setting [17]), 200 nM. Further, the EC50 in the data set with EV-D68 (setting [18]) turned out to be 200 nM.
